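Results reflect a 48-hour exposure of cells in 96-well plates to compound at five concentrations. Abbreviation: GI50, concentration required for 50% inhibition of growth. At the TGI there is no net growth.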
How the values were obtained:
Test in all cases: inhibition of tumour cell growth, NCI panel, 48 h
UACC-62 melanoma = tested on: UACC-62 melanoma
SR leukemia = tested on: SR leukemia
HCT-116 colon = tested on: HCT-116 colon
IGROV1 ovarian = tested on: IGROV1 ovarian
HT29 colon = tested on: HT29 colon
HS 578T breast = tested on: HS 578T breast
NCI-H460 lung = tested on: NCI-H460 lung
SN12C renal = tested on: SN12C renal
A549 NSCLC = tested on: A549 NSCLC
786-0 renal = tested on: 786-0 renal
SF-295 CNS = tested on: SF-295 CNS
MDA-MB-231 breast = tested on: MDA-MB-231 breast
U251 CNS = tested on: U251 CNS
EKVX NSCLC = tested on: EKVX NSCLC
MDA-MB-435 = tested on: MDA-MB-435
ACHN renal = tested on: ACHN renal
SNB-75 CNS = tested on: SNB-75 CNS
SNB-19 CNS = tested on: SNB-19 CNS
LOX IMVI melanoma = tested on: LOX IMVI melanoma
SF-268 CNS = tested on: SF-268 CNS
M14 melanoma = tested on: M14 melanoma
HCT-15 colon = tested on: HCT-15 colon
SK-MEL-28 melanoma = tested on: SK-MEL-28 melanoma
OVCAR-5 ovarian = tested on: OVCAR-5 ovarian
PC-3 prostate = tested on: PC-3 prostate
KM12 colon = tested on: KM12 colon
CCRF-CEM leukemia = tested on: CCRF-CEM leukemia
TK-10 renal = tested on: TK-10 renal
BT-549 breast = tested on: BT-549 breast
SW-620 colon = tested on: SW-620 colon
NCI-H226 lung = tested on: NCI-H226 lung
RXF 393 renal = tested on: RXF 393 renal
K-562 leukemia = tested on: K-562 leukemia
COLO 205 colon = tested on: COLO 205 colon
UACC-257 melanoma = tested on: UACC-257 melanoma
MALME-3M melanoma = tested on: MALME-3M melanoma
HOP-92 NSCLC = tested on: HOP-92 NSCLC
OVCAR-4 ovarian = tested on: OVCAR-4 ovarian
OVCAR-3 ovarian = tested on: OVCAR-3 ovarian
SK-OV-3 ovarian = tested on: SK-OV-3 ovarian
RPMI-8226 leukemia = tested on: RPMI-8226 leukemia
NCI-H522 lung = tested on: NCI-H522 lung
NCI-H23 lung = tested on: NCI-H23 lung
T-47D breast = tested on: T-47D breast
NCI/ADR-RES ovarian = tested on: NCI/ADR-RES ovarian
DU-145 prostate = tested on: DU-145 prostate
HOP-62 NSCLC = tested on: HOP-62 NSCLC
HCC-2998 colon = tested on: HCC-2998 colon
HL-60(TB) leukemia = tested on: HL-60(TB) leukemia
MOLT-4 leukemia = tested on: MOLT-4 leukemia
A498 renal = tested on: A498 renal
MCF7 breast = tested on: MCF7 breast
OVCAR-8 ovarian = tested on: OVCAR-8 ovarian
SK-MEL-5 melanoma = tested on: SK-MEL-5 melanoma
CAKI-1 renal = tested on: CAKI-1 renal
SF-539 CNS = tested on: SF-539 CNS
UO-31 renal = tested on: UO-31 renal

O=C1c2ccccc2C(=O)c2c(Nc3ccc(CCO)cc3)ccc(O)c21
GI50 (UACC-62 melanoma): 10.2 µM | TGI (UACC-62 melanoma): 32.3 µM | GI50 (SR leukemia): 7.71 µM | TGI (SR leukemia): > 100 µM | GI50 (HCT-116 colon): 8.71 µM | TGI (HCT-116 colon): > 100 µM | GI50 (IGROV1 ovarian): 1.41 µM | TGI (IGROV1 ovarian): 32.6 µM | GI50 (HT29 colon): 4.09 µM | TGI (HT29 colon): 14.9 µM | GI50 (HS 578T breast): 3.52 µM | TGI (HS 578T breast): 48 µM | GI50 (NCI-H460 lung): 3.57 µM | TGI (NCI-H460 lung): 15.1 µM | GI50 (SN12C renal): 16.9 µM | TGI (SN12C renal): > 100 µM | GI50 (A549 NSCLC): 6.43 µM | TGI (A549 NSCLC): > 100 µM | GI50 (786-0 renal): 17.2 µM | TGI (786-0 renal): 60.1 µM | GI50 (SF-295 CNS): 11.8 µM | TGI (SF-295 CNS): 47.4 µM | GI50 (MDA-MB-231 breast): 3.3 µM | TGI (MDA-MB-231 breast): 24.9 µM | GI50 (U251 CNS): 8.33 µM | TGI (U251 CNS): 85.8 µM | GI50 (EKVX NSCLC): 4.69 µM | TGI (EKVX NSCLC): > 100 µM | GI50 (MDA-MB-435): 22.6 µM | TGI (MDA-MB-435): > 100 µM | GI50 (ACHN renal): 4.3 µM | TGI (ACHN renal): 45.2 µM | GI50 (SNB-75 CNS): 5.09 µM | TGI (SNB-75 CNS): 29 µM | GI50 (SNB-19 CNS): 23 µM | TGI (SNB-19 CNS): 72.2 µM | GI50 (LOX IMVI melanoma): 3.15 µM | TGI (LOX IMVI melanoma): 14.5 µM | GI50 (SF-268 CNS): 11 µM | TGI (SF-268 CNS): > 100 µM | GI50 (M14 melanoma): 12.9 µM | TGI (M14 melanoma): 61.4 µM | GI50 (HCT-15 colon): 4.28 µM | TGI (HCT-15 colon): 38.7 µM | GI50 (SK-MEL-28 melanoma): 12.3 µM | TGI (SK-MEL-28 melanoma): 55.2 µM | GI50 (OVCAR-5 ovarian): 21.1 µM | TGI (OVCAR-5 ovarian): 62.6 µM | GI50 (PC-3 prostate): 6.34 µM | TGI (PC-3 prostate): 25.5 µM | GI50 (KM12 colon): 4.74 µM | TGI (KM12 colon): 36.3 µM | GI50 (CCRF-CEM leukemia): 3.61 µM | TGI (CCRF-CEM leukemia): 30.7 µM | GI50 (TK-10 renal): 21.8 µM | TGI (TK-10 renal): > 100 µM | GI50 (BT-549 breast): 9.82 µM | TGI (BT-549 breast): 68.5 µM | GI50 (SW-620 colon): 6.69 µM | TGI (SW-620 colon): 67.5 µM | GI50 (NCI-H226 lung): 14.8 µM | TGI (NCI-H226 lung): 48.9 µM | GI50 (RXF 393 renal): 6.54 µM | TGI (RXF 393 renal): 23.7 µM | GI50 (K-562 leukemia): 18.4 µM | TGI (K-562 leukemia): > 100 µM | GI50 (COLO 205 colon): 4.86 µM | TGI (COLO 205 colon): 21.7 µM | GI50 (UACC-257 melanoma): 20.3 µM | TGI (UACC-257 melanoma): 70.7 µM | GI50 (MALME-3M melanoma): 12.8 µM | TGI (MALME-3M melanoma): 58 µM | GI50 (HOP-92 NSCLC): 4.52 µM | TGI (HOP-92 NSCLC): 26.3 µM | GI50 (OVCAR-4 ovarian): 9.13 µM | TGI (OVCAR-4 ovarian): > 100 µM | GI50 (OVCAR-3 ovarian): 13.2 µM | TGI (OVCAR-3 ovarian): > 100 µM | GI50 (SK-OV-3 ovarian): 11 µM | TGI (SK-OV-3 ovarian): 64.8 µM | GI50 (RPMI-8226 leukemia): 5.49 µM | TGI (RPMI-8226 leukemia): 36.5 µM | GI50 (NCI-H522 lung): 3.56 µM | TGI (NCI-H522 lung): 16.7 µM | GI50 (NCI-H23 lung): 17.3 µM | TGI (NCI-H23 lung): 88.7 µM | GI50 (T-47D breast): 0.987 µM | TGI (T-47D breast): 26.1 µM | GI50 (NCI/ADR-RES ovarian): 17.6 µM | TGI (NCI/ADR-RES ovarian): 94.4 µM | GI50 (DU-145 prostate): 7.67 µM | TGI (DU-145 prostate): 42.7 µM | GI50 (HOP-62 NSCLC): 21.4 µM | TGI (HOP-62 NSCLC): 45.9 µM | GI50 (HCC-2998 colon): 9.42 µM | TGI (HCC-2998 colon): 28.3 µM | GI50 (HL-60(TB) leukemia): 25.6 µM | TGI (HL-60(TB) leukemia): > 100 µM | GI50 (MOLT-4 leukemia): 10.7 µM | TGI (MOLT-4 leukemia): > 100 µM | GI50 (A498 renal): 16.4 µM | TGI (A498 renal): 40.2 µM | GI50 (MCF7 breast): 0.504 µM | TGI (MCF7 breast): 36.4 µM | GI50 (OVCAR-8 ovarian): 17.4 µM | TGI (OVCAR-8 ovarian): > 100 µM | GI50 (SK-MEL-5 melanoma): 11.7 µM | TGI (SK-MEL-5 melanoma): 33.5 µM | GI50 (CAKI-1 renal): 6.81 µM | TGI (CAKI-1 renal): > 100 µM | GI50 (SF-539 CNS): 10.2 µM | TGI (SF-539 CNS): 27.3 µM | GI50 (UO-31 renal): 2.2 µM | TGI (UO-31 renal): 26.9 µM

Source: PubChem BioAssay (NCI)
